{"source": "patent US12433870B2", "about": "“Supramolecular photoprotection of a photosensitizer” (Northwestern University, priority 2019, dated 2025)", "key": {"[1]": {"test": "Detection of singlet oxygen (ADPA chemical method, methylene blue reference)", "type": "physicochemical", "details": "20 μM, 630 nm, 50 mW, 20 min", "procedure": "Singlet oxygen (^1O2) quantum-yield measurements were conducted by a chemical method. The disodium salt of 9.10-anthracenedipropionic acid (ADPA) was used as singlet oxygen detection reagent with methylene blue used as a reference (Φt=0.53). In this experiment, ADPA (0.1 μmol) was added to the H2O solution of ExBox^4+⊃DPP (20 μM) with a laser irradiation (630 nm, 50 mW) for 20 min, followed by quantification of ^1O2 by the absorbance intensity change (UV-3600 Shimadzu spectrophotometer) at 380 nm of ADPA. The calculation of ^1O2 quantum yield is based on the equality ΦΔ=(ΔAs/[…])Φr. ΔAs is the absorption change of detected photosensitizer, ΔAr is the absorption change of referenced photosensitizer and Φ^r is the quantum yield of singlet oxygen of referenced photosensitizer (methylene blue).\n(§1) ADPA (0.1 μmol) was added to the H2O solution of DPPH2^+ (20 μM) with a laser irradiation (630 nm, 50 mW) for 20 min, followed by quantification of the ^1O2 by the absorbance intensity change (UV-3600 Shimadzu spectrophotometer) at 380 nm of ADPA. The calculation of the ^1O2 quantum yield is based on the equality ΦΔ=(ΔAs/ΔAr)Φr where ΔAs is the absorption change of detected photosensitizer, ΔAr is the absorption change of referenced photosensitizer and Φr is the quantum yield of singlet oxygen of referenced photosensitizer (methylene blue). Measured ^1O2 quantum yield of DPPH2^2+ is 0.38 in H2O.\nas §1, with “acetone” for “H2O”, “DPP” for “DPPH2^+”, “DPP” for “DPPH2^2+”, “0.43” for “0.38”, “acetone.” for “H2O.”"}, "[2]": {"test": "Solubility in water / PBS buffer", "type": "physicochemical"}, "A2780 cells [3]": {"system": "A2780 cells", "test": "In vitro PDT efficacy, MTT assay after visible light irradiation", "type": "cell-based, human", "details": "10 μM PBS solution, light dose 0.078 J cm^−2", "procedure": "A2780 cells (human ovarian cancer cell line) and MCF-7 cells (human breast adenocarcinoma cell line) obtained from Sigma-Aldrich and American Type Culture Collection (ATCC, Rockville, MD, USA), respectively were utilized for cell culture experiments. These cells were cultured in Dulbecco's Modified Eagle's Medium (DMEM) supplemented with 10% fetal bovine serum (FBS), penicillin (100 IU/mL) and streptomycin (100 μg/mL) at 37° C. in the presence of air (95%) and CO2 (5%).\nA2780 or MCF-7 cells (2×10^5 cells/mL, 100 μL) were seeded in each well of a black 96-well plate. Stock solution of ExBox^4+⊃DPP in PBS (1 mM, 10 μL) was added to each well to achieve working concentrations and incubated for 12 h. After incubation, wells were washed with PBS, added with 100 μL of DMEM and immediately irradiated with visible light using Max-303 Xenon Light Source (385-740 nm, Asahi Spectra) at different light intensities (5-50 mW) for 1 to 15 min. Following irradiation, cells were incubated overnight and then added with MTT (5 mg/mL in PBS, 10 μL). After 4 h incubation with MTT, media from each well was pipetted out, formazan crystals deposited on the plate were dissolved in 200 μL of Me2SO, and the absorbance of each well was measured using a microplate reader at 560 nm. All the samples were analyzed in quadruplicates.\nThe percentage cell viability was calculated using the following formula: % cell viability=(OD of treated sample/OD of untreated sample)*100."}, "A2780 cells [4]": {"system": "A2780 cells", "test": "Live cell confocal microscopy, cellular uptake and co-localization", "type": "cell-based, human", "details": "lysosomal uptake, control experiment", "procedure": "A2780 cells (1×10^5 cells/mL, 300 μL) were plated in each well of an 8-well μ-slide (ibidi cell focus) and cultured overnight. PBS solution of ExBox^4+⊃DPP was added to each well and incubated for predetermined time points. For cellular co-localization studies, cells were washed with phenol free DMEM and stained with LysoTracker green (lysosome stain, 1:1000 dilution) or MitoSpy™ Green FM (mitochondria stain, 1:2000 dilution) or NucBlue™ Live ReadyProbes™ Reagent (nuclei stain, 1 drop). For the live-dead assay, cells were incubated with PBS solution of ExBox^4+⊃DPP irradiated for 10 min at […] light intensity, incubated overnight, and stained with Calcein AM (2 μM) and Ethidium homodimer-1 (4 μM). Plated cells were imaged within a humidified chamber using a 63× oil-immersion objective on a SP5 Leica Confocal Microscope using HyD detectors and lasers."}, "[5]": {"details": "reference photosensitizer; cited from earlier work"}}}
{"compound": "C1=Cc2nc1cc1ccc([nH]1)c(-c1ccccc1)c1nc(cc3ccc([nH]3)c2-c2ccccc2)C=C1", "note": "[DPP, 5,15-diphenylporphyrin]", "values": [{"measurement": "^1O2 quantum yield", "setting": "[1]; in acetone", "result": 0.43}, {"measurement": "solubility in H2O", "setting": "[2]; H2O", "result": "insoluble"}, {"measurement": "solubility in water and PBS buffer", "setting": "[2]; water and PBS buffer", "result": "insoluble"}]}
{"compound": "C1=Cc2nc1cc1ccc([nH]1)c(-c1ccccc1)c1nc(cc3ccc([nH]3)c2-c2ccccc2)C=C1", "note": "[DPPH2^2+, reference compound]", "values": [{"measurement": "cells killed (PDT control experiment)", "setting": "A2780 cells [3]", "result": "~90", "unit": "%"}, {"measurement": "^1O2 quantum yield", "setting": "[1]; in H2O", "result": 0.38}, {"measurement": "cellular uptake compared with the complex (fluorescence intensity inside cells)", "setting": "A2780 cells [4]", "result": "less efficient"}]}
{"compound": "CN(C)c1ccc2nc3ccc(=[N+](C)C)cc-3sc2c1", "note": "[methylene blue]", "values": [{"measurement": "^1O2 quantum yield of reference", "setting": "[5]", "result": 0.53}]}
